From publication PMC2929374 (Chemmedchem, 2009)
Read-outs that look alike come from different tables or passages of the source.

Columns and labels:
[1] = molecular target: T1, T. brucei TryR (trypanothione reductase; TyrR) (Trypanosoma brucei, UniProt P39051); assay: DTNB-coupled TryR assay, absorbance, 384-well; type: biochemical
[2] = molecular target: T1, T. brucei TryR (trypanothione reductase; TyrR); assay: DTNB-coupled kinetics, global fit; type: biochemical
[3] = read-out: TryR IC50, pH 7.4, 40 mM HEPES, 1 mM EDTA, 6 μM trypanothione, 50 μM DTNB, 150 μM NADPH, room temperature

T1 sequence (P39051 whole entry): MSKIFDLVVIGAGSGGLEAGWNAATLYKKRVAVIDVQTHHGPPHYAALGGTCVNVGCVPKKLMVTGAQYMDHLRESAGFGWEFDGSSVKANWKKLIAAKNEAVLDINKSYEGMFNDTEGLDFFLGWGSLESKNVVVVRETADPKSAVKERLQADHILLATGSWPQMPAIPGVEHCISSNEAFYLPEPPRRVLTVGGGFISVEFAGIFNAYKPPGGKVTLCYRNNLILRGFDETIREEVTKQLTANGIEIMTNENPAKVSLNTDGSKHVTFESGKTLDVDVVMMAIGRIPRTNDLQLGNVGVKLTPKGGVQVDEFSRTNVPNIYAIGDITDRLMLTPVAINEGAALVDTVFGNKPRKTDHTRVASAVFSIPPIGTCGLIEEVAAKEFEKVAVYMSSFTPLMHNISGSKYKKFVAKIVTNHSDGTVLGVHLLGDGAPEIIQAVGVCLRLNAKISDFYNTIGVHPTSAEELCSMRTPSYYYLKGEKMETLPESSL

| SMILES | IC50 [1] | further results |
| --- | --- | --- |
| CC(=O)N1CCC(c2cc3ccccc3s2)(N2CCCCC2)CC1 [compound 29] | 6.6 µM | – |
| c1ccc2sc(C3(N4CCCCC4)CCN(CCN4CCOCC4)CC3)cc2c1 [compound 33, 4-(2-(4′-(Benzo[b]thiophen-2-yl)-1,4′-bipiperidin-1′-yl)ethyl)morpholine] | 4.4 µM | – |
| Brc1ccc2sc(C3(N4CCCCC4)CCCCC3)cc2c1 [compound 12, 1-(1-(5-Bromo-benzo[b]thiophen-2-yl)cyclohexyl)piperidine] | > 100 µM | – |
| O=C(c1ccccc1)N1CCC(c2cc3ccccc3s2)(N2CCCCC2)CC1 [compound 30, (4′-(Benzo[b]thiophen-2-yl)-1,4′-bipiperidinyl-1′-yl)(phenyl)methanone] | 13 µM | – |
| CC(C)(C)OC(=O)N1CCC(c2cc3ccccc3s2)(N2CCCCC2)CC1 [compound 27, tert-Butyl 4′-(benzo[b]thiophen-2-yl)-1,4′-bipiperidine-1′-carboxylate] | > 100 µM | – |
| c1csc(C2(N3CCCCC3)CCCCC2)c1 [compound 3] | – | IC50 [1, 3]: > 100 µM |
| c1ccc2cc(C3(N4CCCCC4)CCCCC3)ccc2c1 [compound 7] | 28 µM | – |
| c1ccc2sc(C3(N4CCOCC4)CCCCC3)cc2c1 [compound 15] | 11 µM | – |
| CN1CCN(C2(c3cc4ccccc4s3)CCCCC2)CC1 [compound 16] | 10 µM | – |
| c1ccc2sc(C3(N4CCCCC4)CCCCC3)cc2c1 [compound 1, 1-(1-(Benzo[b]thiophen-2-yl)cyclohexyl)piperidine] | – | IC50 [1, 3]: 3.3 µM |
| O=C(Cc1ccccc1)N1CCC(c2cc3ccccc3s2)(N2CCCCC2)CC1 [compound 31, 1-(4′-(Benzo[b]thiophen-2-yl)-1,4′-bipiperidinyl-1′-yl)-2-phenylethanone] | 12 µM | – |
| CN(C)CCN1CCC(c2cc3ccccc3s2)(N2CCCCC2)CC1 [compound 35, 2-(4′-(Benzo[b]thiophen-2-yl)-1,4′-bipiperidinyl-1′-yl)-N,N-dimethylethanamine] | > 100 µM | – |
| c1ccc2sc(C3(N4CCCCC4)CCCC3)cc2c1 [compound 17] | 11 µM | – |
| c1ccc2sc(C3(N4CCCC4)CCCCC3)cc2c1 [compound 13] | – | IC50 [1, 3]: 0.91 µM |
| c1ccc(-c2ccc(C3(N4CCCCC4)CCCCC3)cc2)cc1 [compound 4] | > 100 µM | – |
| c1ccc2c(C3(N4CCCCC4)CCCCC3)cccc2c1 [compound 6] | > 100 µM | – |
| O=C(c1cc2ccccc2s1)C1(N2CCCCC2)CCCCC1 [compound 24, Benzo[b]thiophen-2-yl(1-(piperidin-1-yl)cyclohexyl)methanone] | > 100 µM | – |
| CN(C)CC(=O)N1CCC(c2cc3ccccc3s2)(N2CCCCC2)CC1 [compound 32, 1-(4′-(Benzo[b]thiophen-2-yl)-1,4′-bipiperidinyl-1′-yl)-2-(dimethylamino)ethanone] | 2.6 µM | – |
| c1ccc2oc(C3(N4CCCCC4)CCCCC3)cc2c1 [compound 5] | 4.4 µM | Ki [2]: 1.46 µM |
| CC(C)(c1cc2ccccc2s1)N1CCCCC1 [compound 19] | 15 µM | – |
| CCN(CC)C1(c2cc3ccccc3s2)CCCCC1 [compound 14] | – | IC50 [1, 3]: 5 µM |
| c1ccc2sc(C3(N4CCCCC4)CCCCC3)nc2c1 [compound 9] | > 100 µM | – |
| c1ccc2sc(C3(N4CCCCC4)CCNCC3)cc2c1 [compound 28, 4′-(Benzo[b]thiophen-2-yl)-[1,4′]bipiperidine] | 5.1 µM | – |
| CN1CCC(c2cc3ccccc3s2)(N2CCCCC2)CC1 [compound 18] | 0.93 µM | – |
| c1ccc(CN2CCC(c3cc4ccccc4s3)(N3CCCCC3)CC2)cc1 [compound 34, 4′-(Benzo[b]thiophen-2-yl)-1′-benzyl-1,4′-bipiperidine] | 19 µM | – |
| OC(c1ccccc1)(c1ccccc1)C1(N2CCCCC2)CCCCC1 [compound 25, Diphenyl(1-(piperidin-1-yl)cyclohexyl)methanol] | > 100 µM | – |
